The record followed here is patent publication US11498928B2, “Macrocyclic spiroethers as Mcl-1 inhibitors” (ASCENTAGE PHARMA (SUZHOU) CO., LTD., priority 2019, dated 2022).

Broadly, the IC50 is the concentration that gives 50% inhibition.

For assay [1], the target named is T1, Mcl-1 protein (residues 171-323) (Homo sapiens, UniProt Q07820).
T1 construct: Tag-free Mcl-1 protein (residues 171-323) was used in the FP assay
The assay is described as follows: Inhibition of Mcl-1 by fluorescence polarization (FP) competitive binding assay with FAM-Bid tracer. As to conditions: 2 nM FAM-Bid, 20 nM Mcl-1, 30 min. A digest of the protocol: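 Ten-point compound titrations compete against 2 nM fluorescein-Bid for 20 nM Mcl-1 (171-323, untagged). Incubation 30 min RT in PBS buffer with BGG and Triton, 5% DMSO final. mP reduction fitted by sigmoidal nonlinear regression for IC50.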
(Polarisation of emitted light reports the rotation of a fluorescent probe.)

A further assay concerns OPM-2 cells. The assay is described as follows: Cell viability assay (OPM-2 cells), CCK-8. The format is cell-based. Conditions: 5% FBS. Summed up: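 Viability read by CCK-8 absorbance (450 nm, 4 h reagent incubation) after 24 h compound exposure of 20000 OPM-2 cells per well at 37 °C. IC50 fitted by nonlinear regression on vehicle-normalized signal.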
The subject of a further assay is NCI-H929 cells. The assay is described as follows: Cell viability assay (NCI-H929 cells), CCK-8. Conditions: 5% FBS. The assay is classed as cell-based. Summed up: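 Viability of NCI-H929 cells was measured using the Cell Counting Kit-8. After 24 hrs of compound exposure, 10 μL of CCK-8 solution per well was incubated for 1-4 hours, and absorbance was read at 450 nm on a BioTek Synergy 1MF. Readings were normalized to vehicle (DMSO) cells, and IC50 values were derived by nonlinear regression in GraphPad Prism 6.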

T1 sequence (Q07820 171-323): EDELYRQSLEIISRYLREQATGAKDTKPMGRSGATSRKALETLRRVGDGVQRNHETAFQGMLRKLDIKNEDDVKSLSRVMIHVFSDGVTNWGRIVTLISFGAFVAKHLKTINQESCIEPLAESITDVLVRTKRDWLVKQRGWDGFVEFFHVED

On to `CCOC(=O)CO[C@H]1C2=C[C@@H](C2)[C@H](C)[C@@H](C)S(=O)(=O)NC(=O)c2ccc3c(c2)N(C[C@@H]2CC[C@H]21)C[C@@]1(CCCc2c1ccc(Cl)c2F)CO3` [compound 72, ethyl 2-(((1S,11′R,12′S,13′R,16′R,16a′R,18a′R,E)-6-chloro-5-fluoro-11′,12′-dimethyl-10′,10′-dioxido-8′-oxo-3,4,8′,9′,12′,13′,16′,16a′,17′,18′,18a′,19′-dodecahydro-1′H,2H,3′H,11′H-spiro[naphthalene-1,2′-[5,7]etheno[13,15]methanocyclobuta[i][1,4]oxazepino[3,4-f][1]thia[2,7]diazacyclohexadecin]-16′-yl)oxy)acetate], for which the IC50 in assay [1] came out at 14 nM; with OPM-2 cells (Homo sapiens, OPM-2, 24 h) it was 89 nM; with NCI-H929 cells (Homo sapiens, NCI-H929, 24 h) it was 70 nM.

Turning to `CO[C@H]1C2=C[C@H](C2)[C@H](C)[C@@H](C)S(=O)(=O)NC(=O)c2ccc3c(c2)N(C[C@@H]2CC[C@H]21)C[C@@]1(CCCc2c1ccc(Cl)c2F)CO3` (single isomer, unassigned) [Cpd. No. 17 (isomer 2)], the IC50 in assay [1] stood at 12 nM; in the assay with OPM-2 cells (Homo sapiens, OPM-2, 24 h), 601 nM; in the assay with NCI-H929 cells (Homo sapiens, NCI-H929, 24 h), 310 nM.

Consider `CCO[C@@]1(CN2CCN3CCOC[C@@H]3C2)C2=C[C@@H](C2)[C@H](C)[C@@H](C)S(=O)(=O)NC(=O)c2ccc3c(c2)N(C[C@@H]2CC[C@H]21)C[C@@]1(CCCc2c1ccc(Cl)c2F)CO3` [compound 44, (1S,11′R,12′S,13′R,16′R,16a′R,18a′R,E)-6-chloro-16′-ethoxy-5-fluoro-16′-(((S)-hexahydropyrazino[2,1-c][1,4]oxazin-8(1H)-yl)methyl)-11′,12′-dimethyl-3,4,12,′13′,16′,16a′,17′,18′,18a′,19′-decahydro-1′H,2H,3′H,11′H-spiro[naphthalene-1,2′-[5,7]etheno[13,15]methanocyclobuta[i][1,4]oxazepino[3,4-f][1]thia[2,7]diazacyclohexadecin]-8′(9′H)-one 10′,10′-dioxide], for which the IC50 in assay [1] was found to be 11 nM; with OPM-2 cells (Homo sapiens, OPM-2, 24 h), 48 nM; with NCI-H929 cells (Homo sapiens, NCI-H929, 24 h), 17 nM.

Turning to `CO[C@@]1(CN2CCN(C)CC2)C2=C[C@@H](C2)[C@H](C)[C@@H](C)S(=O)(=O)NC(=O)c2ccc3c(c2)N(C[C@@H]2CC[C@H]21)C[C@@]1(CCCc2c1ccc(Cl)c2F)CO3` [compound 35, (1S,11′R,12′S,13′R,16′R,16a′R,18a′R,E)-6-chloro-5-fluoro-16′-methoxy-11′,12′-dimethyl-16′-((4-methylpiperazin-1-yl)methyl)-3,4,12′,13′,16′,16a′,17′,18′,18a′,19′-decahydro-1′H,2H,3′H, 11′H-spiro[naphthalene-1,2′-[5,7]etheno[13,15]methanocyclobuta[i][1,4]oxazepino[3,4-f][1]thia[2,7]diazacyclohexadecin]-8′(9′H)-one 10′,10′-dioxide], the concentration for half-maximal inhibition (IC50) in assay [1] stood at 14 nM; with OPM-2 cells (Homo sapiens, OPM-2, 24 h) it was 32 nM; with NCI-H929 cells (Homo sapiens, NCI-H929, 24 h) it was 2.4 nM.

Regarding `CC(=O)N1CCN(CCO[C@H]2C3=C[C@@H](C3)[C@H](C)[C@@H](C)S(=O)(=O)NC(=O)c3ccc4c(c3)N(C[C@@H]3CC[C@H]32)C[C@@]2(CCCc3c2ccc(Cl)c3F)CO4)CC1` [compound 87, (1S,11′R,12′S,13′R,16′R,16a′R,18a′R,E)-16′-(2-(4-acetylpiperazin-1-yl)ethoxy)-6-chloro-5-fluoro-11′,12′-dimethyl-3,4,12′,13′,16′,16a′,17′,18′,18a′,19′-decahydro-1′H,2H,3′H, 11′H-spiro[naphthalene-1,2′-[5,7]etheno[13,15]methanocyclobuta[i][1,4]oxazepino[3,4-f][1]thia[2,7]diazacyclohexadecin]-8′(9′H)-one 10′,10′-dioxide], the IC50 came to 8.5 nM in assay [1]; 369 nM with OPM-2 cells (Homo sapiens, OPM-2, 24 h); 27 nM in the assay on NCI-H929 cells (Homo sapiens, NCI-H929, 24 h).

For `C[C@@H]1[C@@H](C)S(=O)(=O)NC(=O)c2ccc3c(c2)N(C[C@@H]2CC[C@H]2[C@@H](OCCN2CC4(CN(C)C4)C2)C2=C[C@H]1C2)C[C@@]1(CCCc2c1ccc(Cl)c2F)CO3` [compound 81, (1S,11′R,12′S,13′R,16′R,16a′R,18a′R,E)-6-chloro-5-fluoro-11′,12′-dimethyl-16′-(2-(6-methyl-2,6-diazaspiro[3.3]heptan-2-yl)ethoxy)-3,4,12′,13′,16′,16a′,17′,18′,18a′,19′-decahydro-1′H,2H,3′H, 11′H-spiro[naphthalene-1,2′-[5,7]etheno[13,15]methanocyclobuta[i][1,4]oxazepino[3,4-f][1]thia[2,7]diazacyclohexadecin]-8′(9′H)-one 10′,10′-dioxide], the IC50 in assay [1] stood at 17 nM; in the assay with OPM-2 cells (Homo sapiens, OPM-2, 24 h), 667 nM; in the assay on NCI-H929 cells (Homo sapiens, NCI-H929, 24 h), 360 nM.

For `C[C@@H]1[C@@H](C)S(=O)(=O)NC(=O)c2ccc3c(c2)N(C[C@@H]2CC[C@H]2[C@@H](OCCN2CCN(C)CC2=O)C2=C[C@H]1C2)C[C@@]1(CCCc2c1ccc(Cl)c2F)CO3` [compound 91, (1S,11′R,12′S,13′R,16′R,16a′R,18a′R)-6-chloro-5-fluoro-11′,12′-dimethyl-16′-(2-(4-methyl-2-oxopiperazin-1-yl)ethoxy)-3,4,12′,13′,16′,16a′,17′,18′,18a′,19′-decahydro-1′H,2H,3′H,11′H-spiro[naphthalene-1,2′-[5,7]etheno[13,15]methanocyclobuta[i][1,4]oxazepino[3,4-f][1]thia[2,7]diazacyclohexadecin]-8′(9′H)-one 10′,10′-dioxide], the IC50 in assay [1] worked out at 15 nM; in the assay with OPM-2 cells (Homo sapiens, OPM-2, 24 h), 59 nM; in the assay on NCI-H929 cells (Homo sapiens, NCI-H929, 24 h) it was 16 nM.

Consider `CO[C@@H]1C2=CC(C2)CC(C)S(=O)(=O)NC(=O)c2ccc3c(c2)N(C[C@@H]2CC[C@H]21)C[C@@]1(CCCc2cc(Cl)ccc21)CO3` (single isomer, unassigned) [7 (Isomer 2)], for which the IC50 in assay [1] was found to be 4.2 nM; in the assay on OPM-2 cells (24 h) it was 2960 nM; with NCI-H929 cells (24 h), 1900 nM.

Take `C[C@@H]1[C@@H](C)S(=O)(=O)NC(=O)c2ccc3c(c2)N(C[C@@H]2CC[C@H]2[C@@H](OCc2nccn2C)C2=C[C@H]1C2)C[C@@]1(CCCc2c1ccc(Cl)c2F)CO3` [compound 63, (1S,11′R,12′S,13′R,16′R,16a′R,18a′R,E)-6-chloro-5-fluoro-11′,12′-dimethyl-16′-((1-methyl-1H-imidazol-2-yl)methoxy)-3,4,12′,13′,16′,16a′,17′,18′,18a′,19′-decahydro-1′H,2H,3′H, 11′H-spiro[naphthalene-1,2′-[5,7]etheno[13,15]methanocyclobuta[i][1,4]oxazepino[3,4-f][1]thia[2,7]diazacyclohexadecin]-8′(9′H)-one 10′,10′-dioxide]: the half-inhibitory concentration (IC50) in assay [1] amounted to 13 nM; in the assay with OPM-2 cells (Homo sapiens, OPM-2, 24 h), 88 nM; in the assay with NCI-H929 cells (Homo sapiens, NCI-H929, 24 h), 98 nM.

As for `CO[C@H]1C2=C[C@H](C2)[C@H](C)CS(=O)(=O)NC(=O)c2ccc3c(c2)N(C[C@@H]2CC[C@H]21)C[C@@]1(CCCc2c1ccc(Cl)c2F)CS3` (single isomer, unassigned) [24 (isomer 2)], the half-inhibitory concentration (IC50) in assay [1] stood at 4.8 nM; in the assay with OPM-2 cells (Homo sapiens, OPM-2, 24 h), 3300 nM; with NCI-H929 cells (Homo sapiens, NCI-H929, 24 h), 4300 nM.

Regarding `C[C@@H]1[C@@H](C)S(=O)(=O)NC(=O)c2ccc3c(c2)N(C[C@@H]2CC[C@H]2[C@@H](OCC(=O)N2CCOCC2)C2=C[C@H]1C2)C[C@@]1(CCCc2c1ccc(Cl)c2F)CO3` [compound 67, (1S,11′R,12′S,13′R,16′R,16a′R,18a′R,E)-6-chloro-5-fluoro-11′,12′-dimethyl-16′-(2-morpholino-2-oxoethoxy)-3,4,12′,13′,16′,16a′,17′,18′,18a′,19′-decahydro-1′H,2H,3′H, 11′H-spiro[naphthalene-1,2′-[5,7]etheno[13,15]methanocyclobuta[i][1,4]oxazepino[3,4-f][1]thia[2,7]diazacyclohexadecin]-8′(9′H)-one 10′,10′-dioxide], the half-maximal inhibitory concentration (IC50) in assay [1] was 15 nM; in the assay on OPM-2 cells (Homo sapiens, OPM-2, 24 h) it was 77 nM; in the assay with NCI-H929 cells (Homo sapiens, NCI-H929, 24 h), 97 nM.

Regarding `CO[C@@]1(CN2CCC(N3CCOCC3)CC2)C2=C[C@@H](C2)[C@H](C)[C@@H](C)S(=O)(=O)NC(=O)c2ccc3c(c2)N(C[C@@H]2CC[C@H]21)C[C@@]1(CCCc2c1ccc(Cl)c2F)CO3` [compound 37, (1S,11′R,12′S,13′R,16′R,16a′R,18a′R,E)-6-chloro-5-fluoro-16′-methoxy-11′,12′-dimethyl-16′-((4-morpholinopiperidin-1-yl)methyl)-3,4,12′,13′,16′,16a′,17′,18′,18a′,19′-decahydro-1′H,2H,3′H, 11′H-spiro[naphthalene-1,2′-[5,7]etheno[13,15]methanocyclobuta[i][1,4]oxazepino[3,4-f][1]thia[2,7]diazacyclohexadecin]-8′(9′H)-one 10′,10′-dioxide], the 50% inhibitory concentration (IC50) in assay [1] worked out at 17 nM; with OPM-2 cells (Homo sapiens, OPM-2, 24 h) it was 63 nM; in the assay with NCI-H929 cells (Homo sapiens, NCI-H929, 24 h), 12 nM.

In the case of `CO[C@H]1C2CC(C2)[C@H](C)N(C)S(=O)(=O)NC(=O)c2ccc3c(c2)N(C[C@@H]2CC[C@H]21)C[C@@]1(CCCc2cc(Cl)ccc21)CO3` [Cpd. No. 28, (1S,12′S,16′S,16a′R,18a′R)-6-chloro-16′-methoxy-11′,12′-dimethyl-3,4,12′,13′,14′,15′,16′,16a′,17′,18′,18a′,19′-dodecahydro-1′H,2H,3′H,11′H-spiro[naphthalene-1,2′-[5,7]etheno[13,15]methanocyclobuta[i][1,4]oxazepino[3,4-f][1]thia[2,7,16]triazacyclohexadecin]-8′(9′H)-one 10′,10′-dioxide], the IC50 was 14 nM in assay [1]; 1500 nM with OPM-2 cells (Homo sapiens, OPM-2, 24 h); 1300 nM with NCI-H929 cells (Homo sapiens, NCI-H929, 24 h).
